Experimental data from patent publication US20230391760A1, “HETEROCYCLIC GLP-1 AGONISTS” (Gasherbrum Bio, Inc., priority 2020, published 2023).

What follows are compounds tested against GLP-1 Receptor (Homo sapiens, UniProt P43220) (assay: GLP-1R agonist cAMP stimulation assay (HEK293/GLP1R/CRE-LUC cells, cAMP dynamic 2 Kit)). Conditions: HEK293/CRE-Luc cell line stably expressing the GLP-1 Receptor, 30 min at 37° C.
Sequence of GLP-1 Receptor (P43220 24-463, species assumed): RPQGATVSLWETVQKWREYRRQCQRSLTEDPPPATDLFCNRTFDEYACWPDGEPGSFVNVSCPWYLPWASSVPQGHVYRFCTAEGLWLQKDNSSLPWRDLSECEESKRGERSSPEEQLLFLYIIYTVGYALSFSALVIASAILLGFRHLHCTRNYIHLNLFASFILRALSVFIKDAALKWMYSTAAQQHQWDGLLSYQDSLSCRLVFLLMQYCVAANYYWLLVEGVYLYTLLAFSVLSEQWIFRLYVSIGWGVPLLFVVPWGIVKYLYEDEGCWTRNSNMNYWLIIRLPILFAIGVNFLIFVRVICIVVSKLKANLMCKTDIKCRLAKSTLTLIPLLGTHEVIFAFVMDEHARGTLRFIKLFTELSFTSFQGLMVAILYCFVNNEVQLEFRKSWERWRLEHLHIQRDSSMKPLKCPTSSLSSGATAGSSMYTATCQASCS
Format: cell-based
How it was run: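 cAMP measured by HTRF competition (d2-labelled cAMP with cryptate antibody, 1 h, room temperature, protected from light). Before that, GLP1R/CRE-Luc HEK293 cells (1000/well) were exposed for 30 min at 37 °C to half-log compound dilutions in DPBS containing IBMX 0.5 mM and BSA 0.1%.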
An EC50 of 1 nM was found for `O=C(Nc1ccc2c(c1)nc(CN1CCC(c3cccc(OCc4ccc(Cl)cc4F)n3)CC1)n2C[C@@H]1CCO1)C1CCCCO1` (stereo partly drawn) [Compound 155a, N-{2-[(4-{6-[(4-chloro-2-fluorophenyl)methoxy]pyridin-2-yl}piperidin-1-yl)methyl]-1-{[(2S)-oxetan-2-yl]methyl}-1H-1,3-benzodiazol-5-yl}oxane-2-carboxamide] in this work. An EC50 of 0.012 nM was found for `N#Cc1ccc(COc2cccc(C3CCN(Cc4nc5cc(-c6nnc(C(F)(F)F)[nH]6)cnc5n4C[C@@H]4CCO4)CC3)n2)c(F)c1` [Compound 325a, 3-fluoro-4-{[(6-{1-[(3-{[(2S)-oxetan-2-yl]methyl}-6-[5-(trifluoromethyl)-4H-1,2,4-triazol-3-yl]-3H-imidazo[4,5-b]pyridin-2-yl)methyl]piperidin-4-yl}pyridin-2-yl)oxy]methyl}benzonitrile] in this work. An EC50 of 0.062 nM was found for `CC1(c2ccc(Cl)cc2F)Oc2cccc(C3CCN(Cc4nc5cc(NC(=O)c6cccnc6)ccc5n4C[C@@H]4CCO4)CC3)c2O1` (stereo partly drawn) [Compound 235a, N-(2-((4-(2-(4-chloro-2-fluorophenyl)-2-methylbenzo[d][1,3]dioxol-4-yl)piperidin-1-yl)methyl)-1-(((S)-oxetan-2-yl)methyl)-1H-benzo[d]imidazol-5-yl)nicotinamide] in this work. An EC50 of 0.56 nM was found for `O=C(Nc1ccc2c(c1)nc(CN1CCC(c3cccc(OCc4ccc(Cl)cc4F)n3)CC1)n2C[C@@H]1CCO1)C1CCO1` (stereo partly drawn) [Compound 129a, N-{2-[(4-{6-[(4-chloro-2-fluorophenyl)methoxy]pyridin-2-yl}piperidin-1-yl)methyl]-1-{[(2S)-oxetan-2-yl]methyl}-1H-1,3-benzodiazol-5-yl}oxetane-2-carboxamide] in this work. An EC50 of 0.022 nM was found for `N#Cc1ccc(COc2cccc(C3=CCN(Cc4nc5cc(-c6nnc(C(F)(F)F)[nH]6)cnc5n4C[C@@H]4CCO4)CC3)n2)c(F)c1` [Compound 321a, 3-fluoro-4-[({1′-[(3-{[(2S)-oxetan-2-yl]methyl}-6-[5-(trifluoromethyl)-4H-1,2,4-triazol-3-yl]-3H-imidazo[4,5-b]pyridin-2-yl)methyl]-1′,2′,3′,6′-tetrahydro-[2,4′-bipyridin]-6-yl}oxy)methyl]benzonitrile] in this work. An EC50 of 3.1 nM was found for `O=C(Nc1ccc2c(c1)nc(CN1CCC(c3cccc(OCc4ccc(Cl)cc4F)n3)CC1)n2C[C@@H]1CCO1)[C@@H]1COC2(CCC2)C1` [Compound 201a, (7S)—N-{2-[(4-{6-[(4-chloro-2-fluorophenyl)methoxy]pyridin-2-yl}piperidin-1-yl)methyl]-1-{[(2S)-oxetan-2-yl]methyl}-1H-1,3-benzodiazol-5-yl}-5-oxaspiro[3.4]octane-7-carboxamide] in this work. An EC50 of 0.43 nM was found for `CCc1nnc(-c2cnc3c(c2)nc(CN2CCC(c4cccc5c4O[C@@](C)(c4ccc(Cl)cc4F)O5)CC2)n3C[C@@H]2CCO2)[nH]1` [Compound 352a, 4-[(2S)-2-(4-chloro-2-fluorophenyl)-2-methyl-2H-1,3-benzodioxol-4-yl]-1-{[6-(5-ethyl-4H-1,2,4-triazol-3-yl)-3-{[(2S)-oxetan-2-yl]methyl}-3H-imidazo[4,5-b]pyridin-2-yl]methyl}piperidine] in this work. An EC50 of 1.1 nM was found for `CC(=O)Nc1ccc2c(c1)nc(CN1CCC(c3cccc4c3OC(C)(c3ccc(Cl)cc3F)O4)CC1)n2C[C@@H]1CCO1` (stereo partly drawn) [Compound 240a, N-(2-((4-(2-(4-chloro-2-fluorophenyl)-2-methylbenzo[d][1,3]dioxol-4-yl)piperidin-1-yl)methyl)-1-(((S)-oxetan-2-yl)methyl)-1H-benzo[d]imidazol-5-yl)acetamide] in this work. An EC50 of 0.48 nM was found for `N#Cc1ccc(COc2cc(C3=CCN(Cc4nc5cc(-c6nnc(C(F)(F)F)[nH]6)cnc5n4C[C@@H]4CCO4)CC3)ccc2F)c(F)c1` [Compound 296a, 3-fluoro-4-[(2-fluoro-5-{1-[(3-{[(2S)-oxetan-2-yl]methyl}-6-[5-(trifluoromethyl)-4H-1,2,4-triazol-3-yl]-3H-imidazo[4,5-b]pyridin-2-yl)methyl]-1,2,3,6-tetrahydropyridin-4-yl}phenoxy)methyl]benzonitrile] in this work. An EC50 of 0.072 nM was found for `CO[C@H](C)Cn1c(CN2CCC(c3cccc4c3O[C@@](C)(c3ccc(Cl)cc3F)O4)CC2)nc2cc(-c3noc(=O)[nH]3)ncc21` [Compound 419a, 3-[2-({4-[(2S)-2-(4-chloro-2-fluorophenyl)-2-methyl-2H-1,3-benzodioxol-4-yl]piperidin-1-yl}methyl)-3-[(2R)-2-methoxypropyl]-3H-imidazo[4,5-c]pyridin-6-yl]-4,5-dihydro-1,2,4-oxadiazol-5-one] in this work. An EC50 of 0.054 nM was found for `Fc1cc(Cl)ccc1COc1nc(C2CCN(Cc3nc4cc(-c5nnc(C(F)(F)F)[nH]5)nnc4n3C[C@@H]3CCO3)CC2)ccc1F` [Compound 488a, 2-[(4-chloro-2-fluorophenyl)methoxy]-3-fluoro-6-{1-[(7-{[(2S)-oxetan-2-yl]methyl}-3-[5-(trifluoromethyl)-4H-1,2,4-triazol-3-yl]-7H-imidazo[4,5-c]pyridazin-6-yl)methyl]piperidin-4-yl}pyridine] in this work. An EC50 of 3 nM was found for `O=C(Nc1ccc2c(c1)nc(CN1CCC(c3cccc(OCc4ccc(Cl)cc4F)n3)CC1)n2C[C@@H]1CCO1)C1CCS(=O)(=O)CC1` [Compound 156a, N-{2-[(4-{6-[(4-chloro-2-fluorophenyl)methoxy]pyridin-2-yl}piperidin-1-yl)methyl]-1-{[(2S)-oxetan-2-yl]methyl}-1H-1,3-benzodiazol-5-yl}-1,1-dioxo-1λ^6-thiane-4-carboxamide] in this work. An EC50 of 7.2 nM was found for `O=C1CCCN1c1ccc2c(c1)nc(CN1CCC(c3cccc(OCc4ccc(Cl)cc4F)n3)CC1)n2C[C@@H]1CCO1` [Compound 119a, 1-{2-[(4-{6-[(4-chloro-2-fluorophenyl)methoxy]pyridin-2-yl}piperidin-1-yl)methyl]-1-{[(2S)-oxetan-2-yl]methyl}-1H-1,3-benzodiazol-5-yl}pyrrolidin-2-one] in this work. An EC50 of 0.41 nM was found for `C[C@H]1CN(c2ccc(F)c(OCc3ccc(Cl)cc3F)c2)CCN1Cc1nc2cc(-c3nnc(C(F)(F)F)[nH]3)nnc2n1C[C@@H]1CCO1` [Compound 518a, (2S)-4-{3-[(4-chloro-2-fluorophenyl)methoxy]-4-fluorophenyl}-2-methyl-1-[(7-{[(2S)-oxetan-2-yl]methyl}-3-[5-(trifluoromethyl)-4H-1,2,4-triazol-3-yl]-7H-imidazo[4,5-c]pyridazin-6-yl)methyl]piperazine] in this work. An EC50 of 0.14 nM was found for `CO[C@H](C)Cn1c(CN2CCC(c3cccc4c3O[C@@](C)(c3ccc(Cl)cc3F)O4)CC2)nc2cc(-c3nnc(C(F)(F)F)[nH]3)nnc21` [Compound 452a, 4-[(2S)-2-(4-chloro-2-fluorophenyl)-2-methyl-2H-1,3-benzodioxol-4-yl]-1-({7-[(2R)-2-methoxypropyl]-3-[5-(trifluoromethyl)-4H-1,2,4-triazol-3-yl]-7H-imidazo[4,5-c]pyridazin-6-yl}methyl)piperidine] in this work. An EC50 of 0.02 nM was found for `CC1(c2ccc(C#N)cc2F)Oc2cccc(C3CCN(Cc4nc5cc(-c6nnc(C(F)(F)F)[nH]6)cnc5n4C[C@@H]4CCO4)CC3)c2O1` (stereo partly drawn) [Compound 403a, 3-fluoro-4-(2-methyl-4-{1-[(3-{[(2S)-oxetan-2-yl]methyl}-6-[5-(trifluoromethyl)-4H-1,2,4-triazol-3-yl]-3H-imidazo[4,5-b]pyridin-2-yl)methyl]piperidin-4-yl}-2H-1,3-benzodioxol-2-yl)benzonitrile] in this work. An EC50 of 0.092 nM was found for `Fc1cc(Cl)ccc1COc1ccc(F)c(N2CCN(Cc3nc4cc(-c5nnc(C(F)(F)F)[nH]5)nnc4n3C[C@@H]3CCO3)CC2)n1` [Compound 502a, 1-{6-[(4-chloro-2-fluorophenyl)methoxy]-3-fluoropyridin-2-yl}-4-[(7-{[(2S)-oxetan-2-yl]methyl}-3-[5-(trifluoromethyl)-4H-1,2,4-triazol-3-yl]-7H-imidazo[4,5-c]pyridazin-6-yl)methyl]piperazine] in this work. An EC50 of 2.4 nM was found for `O=c1[nH]ccn1-c1ccc2c(c1)nc(CN1CCC(c3cccc(OCc4ccc(Cl)cc4F)n3)CC1)n2C[C@@H]1CCO1` [Compound 122a, 1-{2-[(4-{6-[(4-chloro-2-fluorophenyl)methoxy]pyridin-2-yl}piperidin-1-yl)methyl]-1-{[(2S)-oxetan-2-yl]methyl}-1H-1,3-benzodiazol-5-yl}-2,3-dihydro-1H-imidazol-2-one] in this work. An EC50 of 0.23 nM was found for `CC1(c2ccc(Cl)cc2F)Oc2cccc(C3CCN(Cc4nc5cc(-c6nnc(C(F)(F)F)[nH]6)cnc5n4C[C@@H]4CCCO4)CC3)c2O1` (stereo partly drawn) [Compound 246a, 4-[2-(4-chloro-2-fluorophenyl)-2-methyl-2H-1,3-benzodioxol-4-yl]-1-[(3-{[(2S)-oxolan-2-yl]methyl}-6-[5-(trifluoromethyl)-4H-1,2,4-triazol-3-yl]-3H-imidazo[4,5-b]pyridin-2-yl)methyl]piperidine] in this work. An EC50 of 2 nM was found for `Cc1nnc(-c2cnc3c(c2)nc(CN2CCC(c4cccc5c4OC(C)(c4ccc(Cl)cn4)O5)CC2)n3C[C@@H]2CCO2)[nH]1` (stereo partly drawn) [Compound 269a, 5-chloro-2-[2-methyl-4-(1-{[6-(5-methyl-4H-1,2,4-triazol-3-yl)-3-{[(2S)-oxetan-2-yl]methyl}-3H-imidazo[4,5-b]pyridin-2-yl]methyl}piperidin-4-yl)-2H-1,3-benzodioxol-2-yl]pyridine] in this work. An EC50 of 1.7 nM was found for `CC1(c2ccc(Cl)cc2F)Oc2cccc(C3CCN(Cc4nc5cc(-c6nnc(C(F)(F)F)[nH]6)cnc5n4C[C@@H]4CCO4)CC3)c2O1` (single isomer, unassigned) [Compound 224b] in this work. An EC50 of 0.55 nM was found for `CC1(c2ccc(Cl)cc2F)Oc2cccc(C3CCN(Cc4nc5cc(-c6noc(=O)[nH]6)ccc5n4C[C@@H]4CCO4)CC3)c2O1` (single isomer, unassigned) [Compound 239c] in this work. An EC50 of 0.31 nM was found for `O=C(Nc1ccc2c(c1)nc(CN1CCC(c3cccc(OCc4ccc(Cl)cc4F)n3)CC1)n2C[C@@H]1CCO1)c1cnc2ccccn12` [Compound 181a, N-{2-[(4-{6-[(4-chloro-2-fluorophenyl)methoxy]pyridin-2-yl}piperidin-1-yl)methyl]-1-{[(2S)-oxetan-2-yl]methyl}-1H-1,3-benzodiazol-5-yl}imidazo[1,2-a]pyridine-3-carboxamide] in this work.
